The target in experiment [1] is T1, Human recombinant HDAC1 (Homo sapiens, UniProt Q13547).
T1 construct: purchased Enzo Life Science Co. (named for the kit; assigned to the enzyme from the BML- catalogue prefix) BML-SE456
As to the kind of experiment: HDAC enzyme activity test, HDAC1. Type of experiment: biochemical. Particulars: Table 12; read-out: Inhibition ability (IC50) HDAC1. How it is done:
(§1) Then, 0.3 μg of enzyme and 10 μM of substrate per well were added, reacted at 30° C. for 60 minutes. Thereto, Fluor de Lys® Developer II (BML-KI176) was added and reacted for 30 minutes. […] From the data, the respective IC50 were calculated by GraphPad Prism 4.0 program.

For experiment [2], the target named is T2, human recombinant HDAC6 (Homo sapiens, UniProt Q9UBN7).
T2 construct: purchased Calibiochem Co. (so in the source) 382180
T2 sequence (Q9UBN7 1-1215): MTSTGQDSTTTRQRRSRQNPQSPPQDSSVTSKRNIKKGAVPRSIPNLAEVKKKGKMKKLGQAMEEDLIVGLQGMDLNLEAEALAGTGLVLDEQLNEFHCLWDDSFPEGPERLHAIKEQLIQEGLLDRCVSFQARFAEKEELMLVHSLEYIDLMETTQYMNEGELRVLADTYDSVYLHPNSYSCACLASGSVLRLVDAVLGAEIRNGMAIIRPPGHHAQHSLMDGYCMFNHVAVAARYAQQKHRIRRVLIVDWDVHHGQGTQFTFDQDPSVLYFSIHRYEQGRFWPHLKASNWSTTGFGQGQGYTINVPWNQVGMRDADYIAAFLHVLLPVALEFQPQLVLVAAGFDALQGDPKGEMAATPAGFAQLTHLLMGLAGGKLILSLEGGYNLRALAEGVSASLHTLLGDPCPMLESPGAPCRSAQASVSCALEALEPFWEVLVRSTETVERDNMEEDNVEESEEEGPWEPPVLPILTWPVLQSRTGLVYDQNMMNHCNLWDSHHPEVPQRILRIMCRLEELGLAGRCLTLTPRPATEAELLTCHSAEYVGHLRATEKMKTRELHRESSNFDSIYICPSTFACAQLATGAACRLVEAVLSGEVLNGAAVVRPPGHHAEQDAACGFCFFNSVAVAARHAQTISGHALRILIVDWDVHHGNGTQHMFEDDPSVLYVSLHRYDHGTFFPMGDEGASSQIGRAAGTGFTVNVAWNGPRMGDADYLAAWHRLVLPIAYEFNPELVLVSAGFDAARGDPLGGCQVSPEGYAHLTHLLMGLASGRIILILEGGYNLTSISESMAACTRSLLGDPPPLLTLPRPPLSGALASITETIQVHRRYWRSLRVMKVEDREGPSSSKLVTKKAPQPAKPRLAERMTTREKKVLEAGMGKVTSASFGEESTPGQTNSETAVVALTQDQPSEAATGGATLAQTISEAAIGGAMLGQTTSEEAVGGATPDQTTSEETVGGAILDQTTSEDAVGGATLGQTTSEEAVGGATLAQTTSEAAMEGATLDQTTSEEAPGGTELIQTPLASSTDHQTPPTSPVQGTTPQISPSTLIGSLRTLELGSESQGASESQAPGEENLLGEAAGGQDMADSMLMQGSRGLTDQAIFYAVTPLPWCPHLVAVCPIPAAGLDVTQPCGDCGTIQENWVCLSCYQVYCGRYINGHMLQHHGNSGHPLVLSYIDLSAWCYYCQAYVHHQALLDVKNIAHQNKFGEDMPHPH
As to the kind of experiment: HDAC enzyme activity test, HDAC6. Type of experiment: biochemical. Particulars: Table 12; for Selectivity for HDAC6, HD1/HD6: ratio HDAC1 IC50 / HDAC6 IC50; for IC50: read-out: Inhibition ability (IC50) HDAC6. The protocol:
as §1

For orientation: IC50 means the concentration that inhibits the measured activity by half.

T1 sequence (Q13547 whole entry): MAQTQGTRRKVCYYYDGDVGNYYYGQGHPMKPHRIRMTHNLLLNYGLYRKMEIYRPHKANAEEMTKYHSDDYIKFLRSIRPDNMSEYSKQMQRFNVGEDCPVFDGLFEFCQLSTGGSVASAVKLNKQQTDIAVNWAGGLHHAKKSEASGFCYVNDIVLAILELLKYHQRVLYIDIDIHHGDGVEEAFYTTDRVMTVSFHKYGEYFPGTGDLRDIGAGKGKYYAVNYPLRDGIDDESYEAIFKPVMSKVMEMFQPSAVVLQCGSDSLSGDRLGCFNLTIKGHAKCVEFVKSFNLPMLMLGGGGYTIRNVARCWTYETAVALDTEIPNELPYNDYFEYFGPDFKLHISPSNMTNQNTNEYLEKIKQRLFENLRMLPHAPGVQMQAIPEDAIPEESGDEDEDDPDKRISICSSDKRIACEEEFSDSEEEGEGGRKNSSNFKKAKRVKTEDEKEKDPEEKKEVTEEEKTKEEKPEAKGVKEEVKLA

Turning to `O=C(NO)c1ccc(Cn2c3ccccc3c3c(=O)[nH]cnc32)cc1` [Compound 179, N-hydroxy-4-((4-oxo-3,4-dihydropyrimido[4,5-b]indol-9-yl)methyl)benzamide], the half-inhibitory concentration (IC50) in experiment [1] worked out at 154 nM. Moreover, in experiment [2], the “Selectivity for HDAC6, HD1/HD6” value is 43.693 and the IC50 was 3.52 nM.

For `O=C(NO)c1ccc(Cn2c3c(c4ccccc42)C(=O)C(CN2CCCCC2)CC3)cc1` (stereo not drawn) [Compound 86, N-hydroxy-4-((4-oxo-3-(piperidin-1-ylmethyl)-1,2,3,4-tetrahydrocarbazol-9-yl)methyl)benzamide], the IC50 in experiment [1] was 2840 nM. In addition, in experiment [2], the “Selectivity for HDAC6, HD1/HD6” value stood at 286.1 and the IC50 was determined as 9.94 nM.

`CC1(C)Cc2c(c3ccccc3n2Cc2ccc(C(=O)NO)cc2)C(=O)C1CN1CCOCC1` (stereo not drawn) [Compound 122, 4-((2,2-dimethyl-3-(morpholinomethyl)-4-oxo-1,2,3,4-tetrahydrocarbazol-9-yl)methyl)-N-hydroxybenzamide]: the IC50 in experiment [1] is 6270 nM. Further, in experiment [2], the “Selectivity for HDAC6, HD1/HD6” value is 153 and the half-maximal inhibitory concentration (IC50) was found to be 41 nM.

Consider `O=C(NO)c1ccc(Cn2c3c(c4ccccc42)C(=O)CCC3)cc1` [Compound 99, N-hydroxy-4-((4-oxo-1,2,3,4-tetrahydrocarbazol-9-yl)methyl)benzamide], for which the IC50 in experiment [1] is 2680 nM. Further, in experiment [2], the “Selectivity for HDAC6, HD1/HD6” value worked out at 163.9 and the IC50 is 16.4 nM.

In the case of `CCN1CCN(CC2CCc3c(c4ccccc4n3CCCCCC(=O)NO)C2=O)CC1` (stereo not drawn) [Compound 206, 6-(3-((4-ethylpiperazin-1-yl)methyl)-4-oxo-1,2,3,4-tetrahydrocarbazol-9-yl)-N-hydroxyhexanamide], the IC50 in experiment [1] came out at 1200 nM; in experiment [2] it was 27.5 nM. Also, the “Selectivity for HDAC6, HD1/HD6” value in experiment [2] stood at 43.5.

In the case of `O=C(CCCCCn1c2c(c3ccccc31)C(=O)C(CN1CCC(F)(F)C1)CC2)NO` (stereo not drawn) [Compound 204, 6-(3-((3,3-difluoropyrrolidin-1-yl)methyl)-4-oxo-1,2,3,4-tetrahydrocarbazol-9-yl)-N-hydroxyhexanamide], in experiment [1], the half-inhibitory concentration (IC50) was determined as 1950 nM. Further, in experiment [2], the “Selectivity for HDAC6, HD1/HD6” value is recorded as 40 and the 50% inhibitory concentration (IC50) turned out to be 48.7 nM.

Regarding `CC1(C)CC(=O)c2c(n(CCCCCC(=O)NO)c3cc(F)ccc23)C1` [Compound 76, 6-(7-fluoro-2,2-dimethyl-4-oxo-1,2,3,4-tetrahydrocarbazol-9-yl)-N-hydroxyhexanamide], the 50% inhibitory concentration (IC50) in experiment [1] worked out at 5230 nM. In experiment [2], the “Selectivity for HDAC6, HD1/HD6” value is 30.7 and the IC50 was 171 nM.

On to `Cc1ccc(N2CCN(CC3CCc4c(c5ccccc5n4Cc4ccc(C(=O)NO)cc4)C3=O)CC2)cc1C` (stereo not drawn) [Compound 128, 4-((3-((4-(3,4-dimethylphenyl)piperazin-1-yl)methyl)-4-oxo-1,2,3,4-tetrahydrocarbazol-9-yl)methyl)-N-hydroxybenzamide], for which the figures for the IC50 in experiment [1] and in experiment [2] were 8140 nM and 41 nM, respectively. Also, the “Selectivity for HDAC6, HD1/HD6” value in experiment [2] is recorded as 198.6.

For `CC1(C)Cc2c(c3cc(F)ccc3n2Cc2ccc(C(=O)NO)cc2)C(=O)C1CN1CCOCC1` (stereo not drawn) [Compound 207, 4-((6-fluoro-2,2-dimethyl-3-(morpholinomethyl)-4-oxo-1,2,3,4-tetrahydrocarbazol-9-yl)methyl)-N-hydroxybenzamide], in experiment [1], the IC50 was found to be 1820 nM. In addition, in experiment [2], the “Selectivity for HDAC6, HD1/HD6” value is 41.5 and the IC50 was determined as 43.9 nM.

As for `CC1(C)CC(=O)c2c(n(Cc3ccc(C(=O)NO)cc3)c3cc(F)c(F)cc23)C1` [Compound 71, 4-((6,7-difluoro-2,2-dimethyl-4-oxo-1,2,3,4-tetrahydrocarbazol-9-yl)methyl)-N-hydroxybenzamide], the IC50 in experiment [1] was 4990 nM; in experiment [2], 134 nM. For the same molecule, in experiment [2], the “Selectivity for HDAC6, HD1/HD6” value stood at 37.

On to `O=C(NO)c1ccc(Cn2c3c(c4cc(F)ccc42)C(=O)N(CCN2CCC[C@@H]2CO)CC3)cc1` [Compound 289, (R)-4-((8-fluoro-2-(2-(2-(hydroxymethyl)pyrrolidin-1-yl)ethyl)-1-oxo-1,2,3,4-tetrahydropyrido[4,3-b]indol-5-yl)methyl)-N-hydroxybenzamide], for which the concentration for half-maximal inhibition (IC50) in experiment [1] was found to be 7980 nM. Besides, in experiment [2], the “Selectivity for HDAC6, HD1/HD6” value came out at 691.2 and the IC50 turned out to be 11.5 nM.

Consider `CN(CCO)CCN1CCc2c(c3cc(F)ccc3n2Cc2ccc(C(=O)NO)cc2)C1=O` [Compound 292, 4-((8-fluoro-2-(2-((2-hydroxyethyl)(methyl)amino)ethyl)-1-oxo-1,2,3,4-tetrahydropyrido[4,3-b]indol-5-yl)methyl)-N-hydroxybenzamide], for which the 50% inhibitory concentration (IC50) in experiment [1] worked out at 10000 nM. For the same molecule, in experiment [2], the “Selectivity for HDAC6, HD1/HD6” value is listed as 781.3 and the IC50 turned out to be 12.8 nM.

Turning to `CCCCN1CCN(CC2CCc3c(c4ccccc4n3CCCCCC(=O)NO)C2=O)CC1` (stereo not drawn) [Compound 208, 6-(3-((4-butylpiperazin-1-yl)methyl)-4-oxo-1,2,3,4-tetrahydrocarbazol-9-yl)-N-hydroxyhexanamide], the half-maximal inhibitory concentration (IC50) in experiment [1] was 284 nM. Also, in experiment [2], the “Selectivity for HDAC6, HD1/HD6” value is given as 152.8 and the concentration for half-maximal inhibition (IC50) stood at 1.9 nM.

As for `Cc1cn(Cc2ccc(C(=O)NO)cc2)c2c1C(=O)N(CCN1CCOCC1)CC2` [Compound 250, N-hydroxy-4-((3-methyl-5-(2-morpholinoethyl)-4-oxo-4,5,6,7-tetrahydropyrrolo[3,2-c]pyridin-1-yl)methyl)benzamide], the IC50 in experiment [1] worked out at 2720 nM. Further, in experiment [2], the “Selectivity for HDAC6, HD1/HD6” value amounted to 20.5 and the concentration for half-maximal inhibition (IC50) stood at 133 nM.

With `COCCN1CCN(CC2CCc3c(c4cc(F)ccc4n3Cc3ccc(C(=O)NO)cc3)C2=O)CC1` (stereo not drawn) [Compound 284, 4-((6-fluoro-3-((4-(2-methoxyethyl)piperazin-1-yl)methyl)-4-oxo-1,2,3,4-tetrahydrocarbazol-9-yl)methyl)-N-hydroxybenzamide], the IC50 in experiment [1] turned out to be 10700 nM. In experiment [2], the “Selectivity for HDAC6, HD1/HD6” value stood at 1435.7 and the IC50 worked out at 7.47 nM.

With `CC1(C)CC(=O)c2c(n(Cc3ccc(C(=O)NO)cc3)c3cccc(Br)c23)C1` [Compound 53, 4-((5-bromo-2,2-dimethyl-4-oxo-1,2,3,4-tetrahydrocarbazol-9-yl)methyl)-N-hydroxybenzamide], the half-maximal inhibitory concentration (IC50) in experiment [1] was found to be 5760 nM. In addition, in experiment [2], the “Selectivity for HDAC6, HD1/HD6” value was determined as 88.7 and the IC50 was determined as 64.9 nM.

In the case of `COCCN1CCN(CC2CCc3c(c4ccccc4n3Cc3ccc(C(=O)NO)cc3)C2=O)CC1` (stereo not drawn) [Compound 114], in experiment [1], the IC50 stood at 5790 nM. Also, in experiment [2], the “Selectivity for HDAC6, HD1/HD6” value is given as 327.1 and the IC50 was 17.7 nM.

For `CC1CN(CC2CCc3c(c4ccccc4n3Cc3ccc(C(=O)NO)cc3)C2=O)CC(C)O1` (stereo not drawn) [Compound 110, 4-((3-((2,6-dimethylmorpholino)methyl)-4-oxo-1,2,3,4-tetrahydrocarbazol-9-yl)methyl)-N-hydroxybenzamide], in experiment [1], the half-inhibitory concentration (IC50) is 896 nM. Moreover, in experiment [2], the “Selectivity for HDAC6, HD1/HD6” value is given as 80 and the IC50 is 11.2 nM.

Take `O=C(NO)c1ccc(Cn2c3ccc(F)cc3c3c(=O)[nH]ccc32)cc1` [Compound 305, 4-((8-fluoro-1-oxo-1,2-dihydropyrido[4,3-b]indol-5-yl)methyl)-N-hydroxybenzamide]: the IC50 in experiment [1] stood at 2450 nM. In experiment [2], the “Selectivity for HDAC6, HD1/HD6” value is listed as 980.4 and the IC50 is 2.5 nM.

`O=C(NO)c1ccc(Cn2c3c(c4cc(F)ccc42)C(=O)C(CN2CC[C@@H](F)C2)CC3)cc1` (stereo partly drawn) [Compound 283, 4-((6-fluoro-3-(((R)-3-fluoropyrrolidin-1-yl)methyl)-4-oxo-1,2,3,4-tetrahydrocarbazol-9-yl)methyl)-N-hydroxybenzamide]: the IC50 in experiment [1] stood at 11800 nM. Besides, in experiment [2], the “Selectivity for HDAC6, HD1/HD6” value is reported as 1420.6 and the IC50 was 8.29 nM.

For the molecule `Cc1cn(Cc2ccc(C(=O)NO)cc2)c2c1C(=O)CC(C)(C)C2` [Compound 136, N-hydroxy-4-((3,6,6-trimethyl-4-oxo-4,5,6,7-tetrahydro-1H-indol-1-yl)methyl)benzamide], the IC50 in experiment [1] was 3260 nM. In experiment [2], the “Selectivity for HDAC6, HD1/HD6” value amounted to 380.3 and the IC50 is 8.58 nM.

For the origin of these results see patent US20140315889A1, “HYDROXAMATE DERIVATIVES FOR HDAC INHIBITOR, AND THE PHARMACEUTICAL COMPOSITION COMPRISING THEREOF” (CHONG KUN DANG PHARMACEUTICAL CORP., priority 2011, published 2014).
